Laboratory results from US20060247223A1, “Non-imidazole alkylamines as histamine H3- receptor ligands and their therapeutic applications” (priority 1998, published 2006).
Where a name gives a salt, the structure may show the parent alone. Read-outs that look alike come from different tables or passages of the source.

Key:
[1] = target: T1, H3 receptor (Mus musculus, UniProt P58406); assay: tele-methylhistamine level variations in the brain of mice after p.o. administration; assay type: in vivo; conditions: for ED50: mouse, po, brain tele-methylhistamine level, dose responsible for an half maximal effect; for ED50 (mg/kg/p.o.): tele-methylhistamine level in brain, dose for half maximal effect
T1 construct: estimated in vivo by the measurement of the tele-methylhistamine level variations in the brain of mice; from tissue; host or cells: mouse brain, in vivo after p.o. administration
Text: At various time after p.o. administration of the. compounds, the effect of agonists and antagonists are evidenced by the decrease and increase respectively in telemethylhistamine level induced.
The changes are compared to those induced by reference compounds given in high dosage and this allows the calculation of the ED50 value for each compound which correspond to the dose responsible for an half maximal effect.

[2] = target: T2, H3 receptor (Rattus norvegicus, UniProt Q9QYN8); assay: release of neosynthesized tritiated histamine from rat cerebral cortex synaptosomes; assay type: biochemical
T2 construct: release of neosynthesized tritiated histamine from rat cerebral cortex synaptosomes; from tissue; host or cells: rat cerebral cortex synaptosomes

[3] = target: T3, H3 receptor (Cavia porcellus, UniProt Q9JI35); assay: guinea-pig ileum longitudinal muscle strips, electrically stimulated contraction, (R)α-methylhistamine curves with antagonist; assay type: biochemical; conditions: against (R)α-methylhistamine, 1 μM mepyramine present, read-out: H3-receptor antagonist activity pA2 (guinea-pig ileum) (converted)
T3 construct: longitudinal muscle strips from guinea-pig small intestine were dissected out; from tissue; host or cells: guinea-pig small intestine longitudinal muscle strips
Experimental: Briefly, longitudinal muscle strips from guinea-pig small intestine were dissected out and incubated in a gassed O2/CO2 (95%/5%) modified Krebs-Ringer's bicarbonate medium at +37° C. in presence of 1 μM mepyramine to block the H1 receptor. After equilibration, contractile activity under stimulation (rectangular pulses of 15 V, 0.5 msec, 0.1 Hz) was recorded. Concentration-response curves of the effect of (R)α-Methylhistamine alone or together with the antagonist were established.

[4] = H3 receptor, rat cerebral cortex synaptosomes, reversal of (R)α-methylhistamine inhibition of tritiated histamine release, read-out: Ki

T1 sequence (P58406 whole entry): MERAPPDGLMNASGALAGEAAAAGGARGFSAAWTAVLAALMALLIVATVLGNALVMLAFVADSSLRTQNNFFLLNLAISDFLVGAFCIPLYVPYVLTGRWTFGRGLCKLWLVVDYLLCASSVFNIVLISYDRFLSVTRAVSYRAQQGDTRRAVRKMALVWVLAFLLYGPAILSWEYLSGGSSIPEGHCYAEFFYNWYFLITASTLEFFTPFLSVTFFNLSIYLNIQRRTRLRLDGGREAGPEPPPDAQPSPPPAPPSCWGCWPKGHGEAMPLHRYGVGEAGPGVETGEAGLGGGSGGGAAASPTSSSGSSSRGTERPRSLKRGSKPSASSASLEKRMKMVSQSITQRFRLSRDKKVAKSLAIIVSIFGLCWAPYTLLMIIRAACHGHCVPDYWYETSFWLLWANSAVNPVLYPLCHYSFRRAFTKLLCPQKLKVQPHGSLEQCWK
T2 sequence (Q9QYN8 whole entry): as the sequence (P58406 whole entry) above, with A15T, T286A, G290A, H387R, V389I counted along it
T3 sequence (Q9JI35 whole entry): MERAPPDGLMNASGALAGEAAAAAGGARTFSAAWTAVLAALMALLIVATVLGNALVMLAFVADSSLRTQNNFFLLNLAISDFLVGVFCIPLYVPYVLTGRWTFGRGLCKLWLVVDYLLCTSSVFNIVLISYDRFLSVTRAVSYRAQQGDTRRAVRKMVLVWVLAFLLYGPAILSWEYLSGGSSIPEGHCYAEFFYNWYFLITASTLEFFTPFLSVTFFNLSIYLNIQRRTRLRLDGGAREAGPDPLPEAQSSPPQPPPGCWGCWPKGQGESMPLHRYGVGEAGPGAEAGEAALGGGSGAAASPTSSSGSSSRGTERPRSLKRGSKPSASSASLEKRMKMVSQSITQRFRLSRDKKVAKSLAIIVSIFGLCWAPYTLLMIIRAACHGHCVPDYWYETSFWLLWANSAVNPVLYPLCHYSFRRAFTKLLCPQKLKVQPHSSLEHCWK

| Structure (SMILES) | Ki [2, 4] [nM] | ED50 (mg/kg/p.o.) [1] [mg/kg/p.o.] | also measured |
| --- | --- | --- | --- |
| C[C@H]1C[C@H](C)CN(CCCOc2ccc(C#N)cc2)C1 (relative stereo) (as salt: oxalate) [Example 100, 1-[3-(4-cyanophenoxy)propyl]-trans-3,5-dimethylpiperidine] | – | – | melting point: 163 to 165 °C |
| C[C@H]1C[C@H](C)CN(CCCOc2ccc(C(=O)C3CC3)cc2)C1 (relative stereo) (as salt: oxalate) [Example 101, 1-[3-(4-cyclopropanecarbonylphenoxy)propyl]-trans-3,5 dimethylpiperidine] | – | – | melting point: 136 to 138 °C |
| C[C@H]1C[C@H](C)CN(CCCOc2ccc(C(=O)C3CC3)cc2)C1 (relative stereo) [Example 101, 1-[3-(4-cyclopropanecarbonylphenoxy)propyl]-trans-3,5 dimethylpiperidine] | – | – | ED50 [1]: 0.17 mg/kg |
| C[C@H]1C[C@H](C)CN(CCCCCOc2ccccc2)C1 (stereo in doubt) (as salt: oxalate) [Example 12, 1-(5-phenoxypentyl)-3,5-trans-dimethyl-piperidine] | – | – | melting point: 154 to 155 °C |
| CC(=O)c1ccc(OCCCN2C[C@@H](C)C[C@H](C)C2)cc1 (stereo in doubt) (as salt: oxalate) [Example 67, 1-[3-(4-acetylphenoxy)-propyl]-3,5-trans-dimethyl-piperidine] | – | – | melting point: 171 to 172 °C |
| CC1CCCN(CCCCCOc2ccccc2)C1 (centres unmarked) [Example 10, 1-(5-phenoxypentyl)-3-methyl-piperidine] | – | – | melting point: 140 to 141 °C |
| CCN(CC)CCCOc1ccc(C(C)=O)cc1 [Example 46, N-[3-(4-acetylphenoxy)-propyl]-diethylamine] | 20 ± 7 | 0.44 | – |
| CCN(CC)CCCCOc1ccc(C#N)cc1 [Example 56, N-[4-(4-cyanophenoxy)-butyl]-diethylamine] | 62 ± 15 | 1.1 | – |
| N#Cc1ccc(OCCCN2CCCCC2)cc1 [Example 59, 1-[3-(4-cyanophenoxy)propyl]piperidine] | – | 0.20 | Ki [2]: 11 ± 2 nM; ED50 [1]: 0.02 mg/kg |
| N#Cc1ccc(OCCCN2CCCCCC2)cc1 [Example 60, N-[3-(4-cyanophenoxy)-propyl]-hexamethyleneimine] | 8.7 ± 2.1 | 0.64 | – |
| CCN(CC)CCCOc1ccc(C(C)O)cc1 (centres unmarked) [Example 63, N-3-[4-(1-hydroxyethyl)-phenoxy]-propyl-diethylamine] | 60 ± 18 | 0.45 | – |
| CC(=O)c1ccc(OCCCN2CCC(C)CC2)cc1 [Example 68, 1-[3-(4-acetylphenoxy)-propyl]-4-methyl-piperidine] | 4.6 ± 2 | 0.5 | – |
| CCCC(=O)c1ccc(OCCCN2CCCCC2)cc1 [Example 74, 1-[3-(4-buyrylphenoxy)propyl]piperidine] | – | – | ED50 [1]: 0.21 mg/kg |
| O=C(c1ccc(OCCCN2CCCCC2)cc1)C1CC1 [Example 76, 1-[3-(4-cyclopropanecarbonylphenoxy)propyl]piperidine] | – | – | ED50 [1]: 0.18 mg/kg |
| CCC(=O)c1ccc(OCCCN2CCCC(C)C2)cc1 (centres unmarked) [Example 88, 1-[3-(4-propionylphenoxy)propyl]-3-methylpiperidine] | – | – | ED50 [1]: 0.14 mg/kg |
| CCCCCNC(=O)OCCCN1CCCCC1 [Example 120, N-Pentyl-3-piperidinopropyl carbamate] | – | – | Kb [3]: 501 nM |
| CCCCCCC(=O)N1CCC(N2CCCCC2)CC1 [Example 124, N-Heptanoyl-1,4′-bipiperidine] | – | – | Kb [3]: 398 nM |
| c1ccc2sc(NCCN3CCCCC3)nc2c1 [Example 131, 2-((2-Piperidinoethyl)amino)benzothiazole] | – | – | Kb [3]: 251 nM |
| c1ccc(CCCCCCN2CCCCC2)cc1 [Example 136, N-(6-Phenylhexyl)piperidine] | – | – | Kb [3]: 316 nM |

Now from value to compound, other results behind:

| Ki [2, 4] [nM] | ED50 (mg/kg/p.o.) [1] [mg/kg/p.o.] | Structure (SMILES) | also measured |
| --- | --- | --- | --- |
| 39 ± 11 | 1.1 | O=[N+]([O-])c1ccc(OCCCCCN2CCCC2)cc1 [Example 18, 1-[5-(4-nitrophenoxy)-pentyl]-pyrrolidine] | – |
| 95 ± 28 | 0.50 | CCN(CC)CCCOc1ccc(C#N)cc1 [Example 43, N-[3-(4-cyanophenoxy)-propyl]-diethylamine] | – |
| 28 ± 7 | 1.0 | CC(O)c1ccc(OCCCCCN2CCCC2)cc1 (centres unmarked) [Example 50, 1-{5-[4-(1-hydroxyethyl)-phenoxy]-pentyl}-pyrrolidine] | – |
| 2.7 ± 0.9 | 0.8 | CCN(CC)CCCOc1ccc(/C(C)=N/O)cc1 [Example 64, 4-(3-diethylaminopropoxy)-acetophenone-oxime] | – |
| 3.7 ± 0.5 | 0.3 | CC(=O)c1ccc(OCCCN2CCCC(C)C2)cc1 (centres unmarked) [Example 66, 1-[3-(4-acetylphenoxy)-propyl]-3-methyl-piperidine] | – |
| 4.7 ± 0.8 | 0.6 | CCC(=O)c1ccc(OCCCN2CCCCC2)cc1 [Example 69, 1-[3-(4-propionylphenoxy)-propyl]-piperidine] | – |
